IC50 data for 57 molecules are collected here from patent US11247985B2, “Phenyl indole allosteric inhibitors of P97 ATPase” (University of Pittsburgh—Of the Commonwealth System of …, priority 2015, dated 2022).

Chain of p97 ATPase WT (P55072 whole entry): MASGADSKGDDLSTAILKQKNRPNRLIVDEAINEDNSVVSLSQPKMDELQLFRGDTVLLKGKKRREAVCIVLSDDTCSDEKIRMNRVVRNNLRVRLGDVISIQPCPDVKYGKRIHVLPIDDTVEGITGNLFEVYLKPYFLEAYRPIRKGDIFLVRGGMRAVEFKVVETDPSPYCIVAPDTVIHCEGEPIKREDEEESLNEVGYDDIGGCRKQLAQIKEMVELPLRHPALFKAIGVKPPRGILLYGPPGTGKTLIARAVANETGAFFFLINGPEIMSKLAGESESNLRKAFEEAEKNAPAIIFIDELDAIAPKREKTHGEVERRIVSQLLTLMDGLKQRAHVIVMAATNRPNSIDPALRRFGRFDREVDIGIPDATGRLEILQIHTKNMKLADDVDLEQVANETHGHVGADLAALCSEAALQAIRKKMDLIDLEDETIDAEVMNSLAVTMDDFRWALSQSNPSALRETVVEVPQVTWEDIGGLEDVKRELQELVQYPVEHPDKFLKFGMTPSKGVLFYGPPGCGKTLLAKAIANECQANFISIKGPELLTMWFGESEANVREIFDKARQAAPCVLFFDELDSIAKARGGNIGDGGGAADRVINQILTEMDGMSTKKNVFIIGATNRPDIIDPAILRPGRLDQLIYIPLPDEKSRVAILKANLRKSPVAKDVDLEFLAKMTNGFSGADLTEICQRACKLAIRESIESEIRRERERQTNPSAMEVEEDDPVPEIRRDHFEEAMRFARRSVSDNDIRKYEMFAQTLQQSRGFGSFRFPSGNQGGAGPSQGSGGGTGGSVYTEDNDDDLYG

The target in the first assay is p97 ATPase WT (Homo sapiens (Human), UniProt P55072). Description: p97 ADP-Glo assay. Type of assay: biochemical. Conditions: Table 3; read-out: ADPGlo IC50. The source says:
ADP-Glo™ (Promega Corp.) is a bioluminescent, homogeneous assay that measures ADP formed from a biochemical reactions. Because of its high sensitivity, the assay is suitable for monitoring enzyme activities at very early substrate conversions requiring very low amount of enzymes.
The ADP-Glo assay can be conducted as described in Chou, T.-F.; Bulfer, S. L.; Weihl, C.
On the technique in general: In ADP-Glo the light output rises with the ADP produced.
For the molecule `CC(C)(C)N1CCN(CCNC2CCN(c3cccc(-c4cc5ccccc5[nH]4)c3)CC2)CC1`, the IC50 turned out to be 130 nM.
Same read-out and setting: for `CC(C)N1CCN(CCNC2CCN(C(=O)c3cccc(-c4cc5ccccc5[nH]4)c3)CC2)CC1` the value was 13600 nM.
The same measure, in the same setting: then `CN1CCN(C2(CNC3CCN(c4cccc(-c5cc6cc(S(C)(=O)=O)ccc6[nH]5)c4)CC3)CCC2)CC1`, with 16000 nM.
With `c1ccc(CN2CCN(CCNC3CCN(c4cccc(-c5cc6ccccc6[nH]5)c4)CC3)CC2)cc1`, the IC50 was determined as 300 nM.
On the same count and under the same terms, for `CC(C)N1CCN(CCNC2CCN(c3cccc(-c4cc5cc(O)ccc5[nH]4)c3)CC2)CC1` the value was 100 nM.
Same read-out and setting: for `c1cc(-c2cc3ccccc3[nH]2)cc(N2CCC(NCCN3CCOCC3)CC2)c1` the value was 910 nM; for `CC1CCN(CCNC2CCN(c3cccc(-c4cc5ccccc5[nH]4)c3)CC2)CC1`, 800 nM.
Still for that read-out and setting: for `Cc1ccc(N2CCC(NCCN3CCN(C(C)C)CC3)CC2)cc1-c1cc2cc(F)ccc2[nH]1` the value was 25 nM; for `CC(C)N1CCN(CCNC2CCN(c3cncc(-c4cc5ccccc5[nH]4)c3)CC2)CC1`, 8000 nM.
In the case of `Cc1ccc(N2CCC(NCCN3CCN(C(C)C)CC3)CC2)cc1-c1[nH]c2ccccc2c1C`, the IC50 stood at 23000 nM.
In the case of `[N-]=[N+]=Nc1cccc(CNC2CCN(c3cccc(-c4cc5cc(F)ccc5[nH]4)c3)CC2)c1`, the IC50 was 680 nM.
Turning to `CC(C)N1CCN(CCNC2CCN(c3cccc(-c4cc5ccc(C#N)cc5[nH]4)c3)CC2)CC1`, the IC50 came to 6100 nM.
The same measure, in the same setting: then `c1ccc(CCNC2CCN(c3cccc(-c4cc5ccccc5[nH]4)c3)CC2)nc1`, with 720 nM.
Consider `FC(F)(F)CN1CCN(CCNC2CCN(c3cccc(-c4cc5ccccc5[nH]4)c3)CC2)CC1`, for which the IC50 was 1300 nM.
`CC(C)N1CCN(CCNC2CCN(c3cccc(-c4cc5cc(C(F)(F)F)ccc5[nH]4)c3)CC2)CC1`: the IC50 came out at 6000 nM.
Same read-out and setting: then `CC(C)N1CCC(NC2CCN(c3cccc(-c4cc5cc(C#N)ccc5[nH]4)c3)CC2)CC1` [drawing 226], with 47 nM.
As to `CC(C)N1CCN(CCNC2CCN(c3cccc(-c4cc5ccccc5[nH]4)c3)CC2)C(=O)C1`, the IC50 amounted to 1900 nM.
Same read-out and setting: for `CCC(C)N1CCN(CCNC2CCN(c3cccc(-c4cc5ccccc5[nH]4)c3)CC2)CC1` (stereo not shown) the value was 110 nM; for `CC(C)N1CCN(CCNC2CCN(c3cccc(-c4cc5cc(C#N)ccc5[nH]4)c3)CC2)CC1`, 26 nM.
The same measure, in the same setting: then `c1cc(-c2cc3ccccc3[nH]2)cc(N2CCC(NCCN3CCN(CC4CC4)CC3)CC2)c1`, with 170 nM; and `c1ccc(CCNC2CCN(c3cccc(-c4cc5ccccc5[nH]4)c3)CC2)cc1`, with 2700 nM; and `CN1CCN(CC2(NC3CCN(c4cccc(-c5cc6ccccc6[nH]5)c4)CC3)CC2)CC1`, with 440 nM.
On the same count and under the same terms, then `CC(C)N1CCN(CCNC2CCN(c3cccc(-c4cc5cc(F)ccc5[nH]4)c3)CC2)CC1`, with 27 nM.
Take `CC(C)N1CCN(CCNC2CCN(c3cccc(-c4cc5cc(OC(F)(F)F)ccc5[nH]4)c3)CC2)CC1`: the IC50 was 3700 nM.
Turning to `Cc1c(-c2cccc(N3CCC(NCCN4CCN(C(C)C)CC4)CC3)c2)[nH]c2ccccc12`, the IC50 stood at 12000 nM.
Same read-out and setting: then `CC(C)N1CCN(C(=O)CCNC2CCN(c3cccc(-c4cc5ccccc5[nH]4)c3)CC2)CC1`, with 140 nM.
In the case of `CCN(CC)C(=O)CCNC1CCN(c2cccc(-c3cc4cc(F)ccc4[nH]3)c2)CC1`, the IC50 amounted to 670 nM.
Still for that read-out and setting: then `CN(C)CCNC1CCN(c2cccc(-c3cc4cc(C#N)ccc4[nH]3)c2)CC1`, with 460 nM; and `CC(C)N1CCN(CCC2CCN(c3cccc(-c4cc5ccccc5[nH]4)c3)CC2)CC1`, with 6000 nM.
Consider `Cc1ccc(N2CCC(NCC3(N4CCN(C(C)C)CC4)CCC3)CC2)cc1-c1cc2cc(F)ccc2[nH]1`, for which the IC50 amounted to 320 nM.
The same measure, in the same setting: then `CC(C)N1CCN(CCNC2CCN(c3cccc(-c4cc5cc([N+](=O)[O-])ccc5[nH]4)c3)CC2)CC1` [drawing 222], with 36 nM.
The same measure, in the same setting: for `COC(=O)c1ccc2[nH]c(-c3cccc(N4CCC(NC5CCN(C(C)C)CC5)CC4)c3)cc2c1` the value was 510 nM.
In the case of `CC(C)N1CCN(CCNC2CCN(c3cccc(-c4cc5ccc([N+](=O)[O-])cc5[nH]4)c3)CC2)CC1`, the IC50 is 4600 nM.
Take `CN1CCC(NC2CCN(c3cccc(-c4cc5ccccc5[nH]4)c3)CC2)CC1`: the IC50 was 380 nM.
`CN1CCN(C(=O)CCNC2CCN(c3cccc(-c4cc5cc(F)ccc5[nH]4)c3)CC2)CC1`: the IC50 was found to be 150 nM.
On the same count and under the same terms, then `CN1CCN(C2(CNC3CCN(c4cccc(-c5cc6cc(C#N)ccc6[nH]5)c4)CC3)CCC2)CC1`, with 26 nM; and `c1ccc(CNC2CCN(c3cccc(-c4cc5ccccc5[nH]4)c3)CC2)cc1`, with 960 nM; and `CC(C)N1CCC(NC2CCN(c3cccc(-c4cc5cc(F)ccc5[nH]4)c3)CC2)CC1`, with 49 nM.
Take `N#Cc1ccc2[nH]c(-c3cccc(N4CCC(NCc5ccccc5)CC4)c3)cc2c1`: the IC50 was determined as 430 nM.
On the same count and under the same terms, for `[N-]=[N+]=Nc1ccc(NCCNC2CCN(c3cccc(-c4cc5ccccc5[nH]4)c3)CC2)cc1` the value was 5600 nM; for `CC(C)N1CCN(CCNC2CCN(c3cccc(-c4cc5cc(S(F)(F)(F)(F)F)ccc5[nH]4)c3)CC2)CC1`, 21000 nM; for `CC(C)N1CCN(CCNC2CCN(c3cccc(-c4cc5cccc(F)c5[nH]4)c3)CC2)CC1`, 3300 nM.
For `COC(=O)CCNC1CCN(c2cccc(-c3cc4ccccc4[nH]3)c2)CC1`, the IC50 was found to be 1000 nM.
The same measure, in the same setting: then `CC(C)N1CCN(CCNC2CCN(c3cccc(-c4cc5c([nH]4)CCNC5)c3)CC2)CC1`, with 11000 nM.
Still for that read-out and setting: for `CC(C)N1CCN(CCNC2CCN(c3cccc(-c4cc5ccc(N)cc5[nH]4)c3)CC2)CC1` the value was 5200 nM; for `O=C1CN(CCNC2CCN(c3cccc(-c4cc5ccccc5[nH]4)c3)CC2)CCN1`, 850 nM.
On to `CC(C)N1CCC(NC2CCN(c3cccc(-c4cc5cc(S(=O)(=O)NCc6ccccc6)ccc5[nH]4)c3)CC2)CC1`, for which the IC50 was found to be 7500 nM.
With `Cc1ncncc1NC(=O)c1cccc(N2CCC(NCCN3CCN(C(C)C)CC3)CC2)c1`, the IC50 is 23000 nM.
The same measure, in the same setting: then `O=C(Nc1ccccn1)C1CCN(c2cccc(-c3cc4cc(F)ccc4[nH]3)c2)CC1`, with 9700 nM.
Consider `CC(C)N1CCN(C(=O)CCNC2CCN(c3cccc(-c4cc5cc(C#N)ccc5[nH]4)c3)CC2)CC1`, for which the IC50 was 150 nM.
The same measure, in the same setting: for `COC(=O)CCNC1CCN(c2cccc(-c3cc4cc(F)ccc4[nH]3)c2)CC1` the value was 1300 nM; for `CC(C)N1CCC(NC2CCN(c3cccc(-c4cc5cc(C#N)ccc5[nH]4)c3)CC2)CC1` [drawing 239], 4900 nM; for `CC(C)N1CCN(CCNC2CCN(c3cccc(-c4cc5cc(Cl)ccc5[nH]4)c3)CC2)CC1`, 120 nM.
As for `c1cc(-c2cc3ccccc3[nH]2)cc(N2CCC(NCc3ccncc3)CC2)c1`, the IC50 was found to be 1400 nM.
The same measure, in the same setting: for `Cc1c(-c2cc3ccccc3[nH]2)cccc1N1CCC(NC2CCN(C)CC2)CC1` the value was 15000 nM; for `Cc1c(-c2cccc(N3CCC(NC4CCN(C)CC4)CC3)c2)[nH]c2ccccc12`, 22000 nM.

The same assay, now with this note: p97 ADP-Glo assay, differ from Table 2; read-out: ADP-Glo IC50.
Take `CC(C)N1CCN(CCNC2CCN(c3cccc(-c4cc5cc([N+](=O)[O-])ccc5[nH]4)c3)CC2)CC1` [Compound 23, N-(2-(4-Isopropylpiperazin-1-yl)ethyl)-1-(3-(5-nitro-1H-indol-2-yl)phenyl)piperidin-4-amine]: the IC50 stood at 40 ± 40 nM.

The same assay, now with this note: p97 ADP-Glo assay; read-out: inhibitor of the AAA ATPase (potency in words).
Take `CC(C)N1CCN(CCNC2CCN(c3cccc(-c4cc5cc([N+](=O)[O-])ccc5[nH]4)c3)CC2)CC1` [Compound 23, N-(2-(4-Isopropylpiperazin-1-yl)ethyl)-1-(3-(5-nitro-1H-indol-2-yl)phenyl)piperidin-4-amine]: the IC50 came out at 40 nM.
